Results: patent US11530244B2, “Cyclic polypeptides for PCSK9 inhibition” (priority 2018, dated 2022)
Values belong to the molecule of their own block, whether it stands above or below them. Starred links: 1 amine or outer side, 2 acyl side, 3 side chain; linkers in the order of their positions; H or OH if unused. Positions of bridges follow the written chain, without caps; N, C: chain ends. Non-standard residues stand in square brackets, D forms with d. Residues, ends and D or L forms follow the SMILES beside them. Phe(4-COOH) = N[C@@H](Cc1ccc(C(=O)O)cc1)C(=O)O; Trp(5-F) = N[C@@H](Cc1c[nH]c2ccc(F)cc12)C(=O)O; Tyr(3-Cl) = N[C@@H](Cc1ccc(O)c(Cl)c1)C(=O)O; X4 = O=C(CCSCc1cccc(CSCCN[*:1])c1)[*:2]; mXylylene = c1cc(C[*:1])cc(C[*:2])c1; X7 = O=C(Cc1ccc(CN[*:1])cc1)[*:2]; NMeD = CN[C@@H](CC(=O)O)C(=O)O; αMeP = C[C@@]1(C(=O)O)CCCN1; Ava = NCCCCC(=O)O; Mpa = O=C(O)CCS

What was measured:
PCSK9 = PCSK9 (Homo sapiens (Human), UniProt Q8NBP7); test: PCSK9 Alexa FRET Standard assay (displacement of AlexaFluor647 tagged cyclic peptide Reagent A); format: binding; settings: PCSK9 Alexa FRET Standard assay, 0.5 nM PCSK9, 20 nM AF cyclic peptide Reagent A; read-out: IC50
Sequence of PCSK9 (Q8NBP7 153-692): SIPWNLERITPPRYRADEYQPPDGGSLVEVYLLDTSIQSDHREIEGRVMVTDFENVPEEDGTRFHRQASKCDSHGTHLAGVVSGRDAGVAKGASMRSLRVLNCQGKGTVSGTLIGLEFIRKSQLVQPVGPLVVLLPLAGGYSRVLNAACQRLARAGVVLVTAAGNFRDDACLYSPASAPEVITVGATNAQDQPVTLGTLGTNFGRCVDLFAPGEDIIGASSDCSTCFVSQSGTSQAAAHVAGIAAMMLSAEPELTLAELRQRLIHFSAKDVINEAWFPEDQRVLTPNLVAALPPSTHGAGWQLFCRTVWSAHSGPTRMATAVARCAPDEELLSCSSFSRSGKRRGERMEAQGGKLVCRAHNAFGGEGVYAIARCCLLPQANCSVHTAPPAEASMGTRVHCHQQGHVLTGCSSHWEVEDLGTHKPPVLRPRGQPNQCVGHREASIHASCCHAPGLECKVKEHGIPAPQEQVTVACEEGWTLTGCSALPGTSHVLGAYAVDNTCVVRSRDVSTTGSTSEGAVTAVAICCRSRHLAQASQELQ
Outline: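 TR-FRET displacement: 0.5 nM biotinylated PCSK9 with 1.25 nM Strep-Eu and 20 nM AlexaFluor-tagged cyclic peptide (final) in 50 mM HEPES pH 7.4, 0.15 M NaCl, 5 mM CaCl2, 0.01% BSA, 0.01% P20, ≥2 h at room temperature. IC50 from sigmoidal fit, converted to Ki via peptide KD; falling Eu counts flagged false positives.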

[1] = target: human PCSK9 / human LDLR EGFa domain interaction (Homo sapiens (Human), UniProt Q8NBP7); test: TR-FRET assay of inhibition of the PCSK9-LDLR protein-protein interaction; format: binding; settings: TR-FRET, 20 nM human PCSK9, 20 nM human LDLR EGFa domain, 2 hours room temperature; read-out: IC50
Sequence of human PCSK9 / human LDLR EGFa domain interaction (Q8NBP7 153-692): as above
Sequence of human PCSK9 / human LDLR EGFa domain interaction (Q8NBP7 31-152 partner): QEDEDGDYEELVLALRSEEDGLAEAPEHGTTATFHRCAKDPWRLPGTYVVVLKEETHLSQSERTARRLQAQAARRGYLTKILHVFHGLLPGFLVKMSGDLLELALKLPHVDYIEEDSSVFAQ
Outline: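 Half-maximal inhibitory concentrations came from 4-parameter fits of dose-response data. Proteins: biotinylated PCSK9, His-tagged LDLR EGFa, 20 nM each; labels 5 nM; 2 h, room temperature; buffer 50 mM HEPES, 150 mM NaCl, 5 mM CaCl2.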

Compound: COc1ccc(C[C@@H]2NC(=O)[C@@H]3CC/C=C\CO[C@H]4C[C@@H](C(=O)N3)N(C4)C(=O)[C@H](Cc3c[nH]c4ccc(F)cc34)NC(=O)[C@H](Cc3c[nH]c4ccc(F)cc34)NC(=O)[C@@H](C)NC(=O)[C@H](CCCCN)NC(=O)CCSCc3cccc(c3)CSC[C@@H](C(N)=O)NC(=O)[C@]3(C)CCCN3C2=O)cc1 [Compound 509]
IC50 (PCSK9): 0.11 to 100 nM | IC50 [1]: 100 to 1000 nM

Compound: C[C@H]1NC(=O)[C@H](CCCCN)NC(=O)CCSCc2cccc(c2)CSCCNC(=O)[C@]2(C)CCCN2C(=O)[C@H](Cc2ccc(O)c(Cl)c2)NC(=O)[C@H](Cc2cnc[nH]2)NC(=O)[C@H](CC(=O)O)NC(=O)[C@H](Cc2c[nH]c3ccc(F)cc23)NC(=O)[C@H](Cc2c[nH]c3ccc(F)cc23)NC1=O [Compound 246] (cyclo(DH[Tyr(3-Cl)][αMeP][X4]K[dA][Trp(5-F)][Trp(5-F)]))
IC50 (PCSK9): 1000 to 12100 nM | IC50 [1]: 100 to 1000 nM

Compound: CN1C(=O)[C@H](Cc2c[nH]c3ccc(F)cc23)NC(=O)[C@H](Cc2c[nH]c3ccc(F)cc23)NC(=O)CNC(=O)[C@H](CCCCN)NC(=O)CCSCc2cccc(c2)CSC[C@@H](C(N)=O)NC(=O)[C@@H]2CCCN2C(=O)[C@H](Cc2ccc(O)cc2)NC(=O)[C@H](Cc2cnc[nH]2)NC(=O)[C@@H]1CC(=O)O [Compound 171] ([Mpa]KG[Trp(5-F)][Trp(5-F)][NMeD]HYPC-NH2; linker 1-10 via mXylylene)
IC50 (PCSK9): 100 to 1000 nM | IC50 [1]: 0.1 to 100 nM

Compound: COc1ccc(C[C@@H]2NC(=O)[C@H](Cc3cnc[nH]3)NC(=O)[C@H](CC(=O)O)NC(=O)[C@H](Cc3c[nH]c4ccc(F)cc34)NC(=O)[C@H](Cc3c[nH]c4ccc(F)cc34)NC(=O)[C@@H](C)NC(=O)CCCCNC(=O)c3ccc(cc3)C[C@@H](C(N)=O)NC(=O)[C@]3(C)CCCN3C2=O)cc1 [Compound 380] ([Ava][dA][Trp(5-F)][Trp(5-F)]DHY(Me)[αMeP][Phe(4-COOH)]-NH2; lactam N-9)
IC50 (PCSK9): 21000 to 50000 nM | IC50 [1]: 21000 to 50000 nM

Compound: COc1ccc(C[C@@H]2NC(=O)[C@H](Cc3cnc[nH]3)NC(=O)[C@H](CC(=O)O)NC(=O)[C@H](Cc3c[nH]c4ccc(F)cc34)NC(=O)[C@H](Cc3c[nH]c4ccc(F)cc34)NC(=O)[C@H](C)NC(=O)[C@H](NC(C)=O)CCCc3cn(nn3)-c3ccc(cc3)C[C@@H](C(N)=O)NC(=O)[C@]3(C)CCCN3C2=O)cc1 [Compound 395]
IC50 (PCSK9): 21000 to 50000 nM | IC50 [1]: 21000 to 50000 nM

Now from value to molecule:

IC50 (PCSK9): 1000 to 12100 nM | IC50 [1]: 100 to 1000 nM
Compound: COc1ccc(C[C@@H]2NC(=O)[C@H](Cc3cnc[nH]3)NC(=O)[C@H](CC(=O)O)NC(=O)[C@H](Cc3c[nH]c4ccc(F)cc34)NC(=O)[C@H](Cc3c[nH]c4ccc(F)cc34)NC(=O)[C@@H](C)NC(=O)Cc3ccc(cc3)CNC(=O)C[C@@H](C(N)=O)NC(=O)[C@]3(C)CCCN3C2=O)cc1 [Compound 403] ([X7][dA][Trp(5-F)][Trp(5-F)]DHY(Me)[αMeP]D-NH2; lactam N-9)

IC50 (PCSK9): 100 to 1000 nM | IC50 [1]: 100 to 1000 nM
Compound: COc1ccc(C[C@@H]2NC(=O)[C@@H]3CC/C=C\CO[C@H]4C[C@@H](C(=O)N3)N(C4)C(=O)[C@H](Cc3c[nH]c4ccc(F)cc34)NC(=O)[C@H](Cc3c[nH]c4ccc(F)cc34)NC(=O)[C@@H](C)NC(=O)[C@H](C)NC(=O)[C@@H](NC(C)=O)CC(=O)NCc3ccc(cc3)C[C@@H](C(=O)O)NC(=O)[C@]3(C)CCCN3C2=O)cc1 [Compound 514]

IC50 (PCSK9): 1000 to 12100 nM | IC50 [1]: 1000 to 12100 nM
Compound: CC(=O)N[C@H]1CCCn2cc(nn2)CCC[C@@H](C(N)=O)NC(=O)[C@]2(C)CCCN2C(=O)[C@H](Cc2ccc(O)cc2)NC(=O)[C@H](Cc2cnc[nH]2)NC(=O)[C@H](CC(=O)O)NC(=O)[C@H](Cc2c[nH]c3ccc(F)cc23)NC(=O)[C@H](Cc2c[nH]c3ccc(F)cc23)NC(=O)CNC(=O)[C@H](C)NC1=O [Compound 333]

IC50 (PCSK9): 1000 to 12100 nM | IC50 [1]: 100 to 1000 nM
Compound: C[C@H]1NC(=O)[C@H](Cc2cnc[nH]2)NC(=O)[C@H](CC(=O)O)NC(=O)[C@H](Cc2c[nH]c3ccc(F)cc23)NC(=O)[C@H](Cc2c[nH]c3ccc(F)cc23)NC(=O)CNC(=O)[C@H](CCCCN)NC(=O)CCSCc2cccc(c2)CSC[C@@H](C(N)=O)NC(=O)[C@]2(C)CCCN2C1=O [Compound 319] ([Mpa]KG[Trp(5-F)][Trp(5-F)]DH[dA][αMeP]C-NH2; linker 1-10 via mXylylene)

IC50 (PCSK9): 100 to 1000 nM | IC50 [1]: 0.1 to 100 nM
Compound: COc1ccc(C[C@@H]2NC(=O)[C@H](Cc3cnc[nH]3)NC(=O)[C@H](CC(=O)O)NC(=O)[C@H](Cc3c[nH]c4ccc(F)cc34)NC(=O)[C@H](Cc3c[nH]c4ccc(F)cc34)NC(=O)[C@H](C)NC(=O)[C@H](NC(C)=O)CCc3cn(nn3)-c3ccc(cc3)C[C@@H](C(N)=O)NC(=O)[C@]3(C)CCCN3C2=O)cc1 [Compound 392]
